Laboratory results reported in patent US7067535B2, “5-Phenylbenzylamine compounds, process for their production and intermediates for their synthesis” (Tanabe Seiyaku Co., Ltd., priority 2000, dated 2006).
Structures can show the parent of a compound that is named as a salt.

Row | melting point | Compound
1 | 277 to 279 °C (dec.) | COc1ccc(-c2ccc(F)cc2)cc1CN[C@H]1CCCN[C@H]1c1ccccc1.Cl.Cl
2 | 274 to 278 °C (dec.) | COc1ccc(-c2ccc(F)cc2)cc1[C@H](C)N[C@H]1CCCN[C@H]1c1ccccc1 (as salt: hydrochloride) [Example 102, [2-methoxy-5-(4-fluorophenyl)-(S)-α-methylbenzyl][(2S,3S)-2-phenylpiperidin-3-yl]amine dihydrochloride]
3 | 208 to 210 °C (dec.) | COc1ccc(-c2ccc(F)cc2)cc1CN[C@H]1CCCN(Cc2nnc[nH]2)[C@H]1c1ccccc1 (as salt: hydrochloride) [Example 103, (2S,3S)-1-(1,2,4-triazol-3-ylmethyl)-2-phenyl-3-[[2-methoxy-5-(4-fluorophenyl)benzyl]amino]piperidine trihydrochloride]
4 | 198 to 200 °C (dec.) | COc1ccc(-c2ccc(F)cc2)cc1CN[C@H]1CCCN(Cc2n[nH]c(=O)[nH]2)[C@H]1c1ccccc1 (as salt: hydrochloride) [Example 104, (2S,3S)-1-[5(4H)-oxo-1,2,4-triazol-3-yl]methyl-2-phenyl-3-[[2-methoxy-5-(4-fluorophenyl)benzyl]amino]piperidine dihydrochloride]
5 | 180 to 182 °C (dec.) | COc1ccc(-c2ccc(F)cc2)cc1CN[C@H]1CCCN(Cc2n[nH]c(=S)[nH]2)[C@H]1c1ccccc1 (as salt: hydrochloride) [Example 105, (2S,3S)-1-[5(4H)-thioxo-1,2,4-triazol-3-yl]methyl-2-phenyl-3-[[2-methoxy-5-(4-fluorophenyl)benzyl]amino]piperidinedihydrochloride]
6 | 212 to 216 °C (dec.) | COc1ccc(-c2ccc(F)cc2)cc1CN[C@H]1CCCN(Cc2n[nH]c(=O)o2)[C@H]1c1ccccc1 (as salt: hydrochloride) [Example 106, (2S,3S)-1-[5(4H)-oxo-1,3,4-oxadiazol-2-yl]methyl-2-phenyl-3-[[2-methoxy-5-(4-fluorophenyl)benzyl]amino]piperidine-dihydrochloride]
7 | 272 to 274 °C (dec.) | COc1ccc(-c2ccc(Cl)cc2)cc1CN[C@H]1CCCN[C@H]1c1ccccc1 [Example 7, [2-methoxy-5-(4-chlorophenyl)benzyl][(2S,3S)-2-phenylpiperidin-3-yl]amine]
8 | 277 to 278 °C (dec.) | COc1ccc(-c2ccc(C#N)cc2)cc1CN[C@H]1CCCN[C@H]1c1ccccc1 [Example 16, [2-methoxy-5-(4-cyanophenyl)benzyl][(2S,3S)-2-phenylpiperidin-3-yl]amine]

Continued, compound first:

Row | Compound | melting point
9 | COc1ccc(-c2ccc(F)cc2)cc1[C@@H](C)N[C@H]1CCCN[C@H]1c1ccccc1 (as salt: hydrochloride) [Example 101, [2-methoxy-5-(4-fluorophenyl)-(R)-α-methylbenzyl][(2S,3S)-2-phenylpiperidin-3-yl]amine dihydrochloride] | 200 to 204 °C (dec.)
10 | COc1ccc(-c2ccccc2C(F)(F)F)cc1CN[C@H]1CCCN[C@H]1c1ccccc1.Cl.Cl (racemic) | 260 to 262 °C
11 | COc1ccc(-c2ccc(C#N)cc2F)cc1CN[C@H]1CCCN[C@H]1c1ccccc1 [Example 51, [2-methoxy-5-(2-fluoro-4-cyanophenyl)benzyl][(2S,3S)2-phenylpiperidin-3-yl]amine] | 280 to 281 °C (dec.)
12 | COc1ccc(-c2ccc(C#N)cc2F)cc1CN[C@H]1CC[C@@H](C)N[C@H]1c1ccccc1 [Example 112, [2-methoxy-5-(2-fluoro-4-cyanophenyl)benzyl]-[(2S,3S,6R)-6-methyl-2-phenylpiperidin-3-yl]amine] | 301 to 302 °C (dec.)
13 | COc1ccc(-c2ccc(C#N)cc2)cc1CN[C@H]1CC[C@@H](C)N[C@H]1c1ccccc1 [Example 113, [2-methoxy-5-(4-cyanophenyl)benzyl][(2S,3S,6R)6-methyl-2-phenylpiperidin-3-yl]amine] | 298 to 300 °C
